# Results taken from patent publication US20230011869A1 (Hoffmann-La Roche Inc., priority 2018, published 2023).
# Counter-ions that a name gives are not always drawn.
# Test system: Acinetobacter baumannii ATCC17978
# Assay: Antimicrobial susceptibility testing: 90% growth inhibitory concentration (IC90) determination, Iso-Sensitest broth
# Type: cell-based
# Settings: 90% growth inhibitory concentration, Acinetobacter baumannii ATCC17978, Iso-Sensitest broth, OD 600 nm over 16 h; read-out: ATCC17978 IC90
# Procedure, shortened: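 A. baumannii ATCC17978 grown in Iso-Sensitest broth across 10 compound concentrations at 35±2 °C.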
row,SMILES,IC90 [nM]
1,"Cc1cc(Nc2nccn3c(-c4ccc(O[C@@H](C)C#N)c(F)c4F)cnc23)ccc1C(=O)N1CCN(C(=O)[C@@H]2C[C@](C)(O)CN2)CC1 [Example 459, (2S)-2-[2,3-difluoro-4-[8-[4-[4-[(2S,4S)-4-hydroxy-4-methylpyrrolidine-2-carbonyl]piperazine-1-carbonyl]-3-methylanilino]imidazo[1,2-a]pyrazin-3-yl]phenoxy]propanenitrile; for-mic acid]",82
2,"Cc1cc(Nc2nccn3c(-c4ccc(O[C@@H](C)C#N)c(F)c4F)cnc23)ccc1C(=O)N1CCN(C(=O)C2(O)CCNCC2)CC1 [Example 467, (2S)-2-[2,3-difluoro-4-[8-[4-[4-(4-hydroxypiperidine-4-carbonyl)piperazine-1-carbonyl]-3-methylanilino]imidazo[1,2-a]pyrazin-3-yl]phenoxy]propanenitrile; for-mic acid]",180
3,"Cc1cc(Nc2nccn3c(-c4ccc(O[C@@H](C)C#N)c(F)c4F)cnc23)ccc1C(=O)N1CCN(C(=O)[C@@H]2C[C@@H](O)CN2)CC1 [Example 468, (2S)-2-[2,3-difluoro-4-[8-[4-[4-[(2S,4R)-4-hydroxypyrrolidine-2-carbonyl]piperazine-1-carbonyl]-3-methylanilino]imidazo[1,2-a]pyrazin-3-yl]phenoxy]propanenitrile; for-mic acid]",200
4,"Cc1cc(Nc2nccn3c(-c4ccc(OCC#N)c(F)c4Cl)cnc23)ccc1C(=O)N1CCC(C(=O)OC[C@H]2CNCCN2)CC1 [Example 469, [(2R)-piperazin-2-yl]methyl 1-[4-[[3-[2-chloro-4-(cyanomethoxy)-3-fluorophenyl]imidazo[1,2-a]pyrazin-8-yl]amino]-2-methylbenzoyl]piperidine-4-carboxylate]",88
5,"COc1ccc(-c2cnc3c(Nc4ccc(C(=O)N5CCN(C(=O)[C@@H]6C[C@@H](O)CN6)CC5)c(C)c4)nccn23)c(F)c1F [Example 471, [4-[[3-(2,3-difluoro-4-methoxyphenyl)imidazo[1,2-a]pyrazin-8-yl]amino]-2-methylphenyl]-[4-[(2S,4R)-4-hydroxypyrrolidine-2-carbonyl]piperazin-1-yl]methanone]",96
6,"Cc1cc(Nc2nccn3c(-c4ccc(OCC#N)c(F)c4F)cnc23)ccc1C(=O)N1CCN(C(=O)C2(F)CCNCC2)CC1 [Example 481, 2-[2,3-difluoro-4-[8-[4-[4-(4-fluoropiperidine-4-carbonyl)piperazine-1-carbonyl]-3-methylanilino]imidazo[1,2-a]pyrazin-3-yl]phenoxy]acetonitrile; for-mic acid]",150

# Same assay, conditions: Acinetobacter baumannii, ATCC17978, 16 h, read-out: ATCC17978 IC90, 90% growth inhibitory concentration, Acinetobacter baumannii ATCC17978, Iso-Sensitest broth, OD 600 nm over 16 h
row,SMILES,IC90 [nM]
1,"Cc1cc(Nc2nccn3c(-c4ccc(OC(F)F)cc4)cnc23)ccc1C(=O)N1CCN(C(=O)[C@@H](N)CCCCN)CC1 [Example 452, (2S)-2,6-diamino-1-[4-[4-[[3-[4-(difluoromethoxy)phenyl]imi-dazo[1,2-a]pyrazin-8-yl]amino]-2-methylbenzoyl]piperazin-1-yl]hexan-1-one; hydrochloride]",3600
2,"Cc1cc(Nc2nccn3c(-c4ccc(OS(C)(=O)=O)c(F)c4F)cnc23)ccc1C(=O)N1CCN(C(=O)[C@@H]2C[C@@H](O)CN2)CC1 [Example 453, [2,3-difluoro-4-[8-[4-[4-[(2S,4R)-4-hydroxypyrrolidine-2-carbonyl]piperazine-1-carbonyl]-3-methylanilino]imidazo[1,2-a]pyrazin-3-yl]phenyl] methanesulfonate; formic acid]",4200
3,"CCc1cc(Nc2nccn3c(-c4ccc(OS(C)(=O)=O)c(F)c4F)cnc23)ccc1C(=O)N1CCN(C(=O)[C@@H]2C[C@@H](O)CN2)CC1 [Example 454, [4-[8-[3-ethyl-4-[4-[(2S,4R)-4-hydroxypyrrolidine-2-carbonyl]piperazine-1-carbonyl]anilino]imidazo[1,2-a]pyrazin-3-yl]-2,3-difluorophenyl] methanesulfonate; formic acid]",4700
4,"CC[C@@]1(O)CN[C@H](C(=O)N2CCN(C(=O)c3ccc(Nc4nccn5c(-c6ccc(OC)c(F)c6F)cnc45)cc3C)CC2)C1 [Example 456, [4-[[3-(2,3-difluoro-4-methoxyphenyl)imidazo[1,2-a]pyrazin-8-yl]amino]-2-methylphenyl]-[4-[(2S,4S)-4-ethyl-4-hydroxypyrrolidine-2-carbonyl]piperazin-1-yl]methanone; formic acid]",68
5,"CCc1cc(Nc2nccn3c(-c4ccc(OCC#N)c(F)c4F)cnc23)ccc1C(=O)NCCNC(=O)[C@@H]1C[C@@H](O)CN1 [Example 457, (2S,4R)-N-[2-[[4-[[3-[4-(cyanomethoxy)-2,3-difluorophenyl]imidazo[1,2-a]pyrazin-8-yl]amino]-2-ethylbenzoyl]amino]ethyl]-4-hydroxypyrrolidine-2-carboxamide; formic acid]",80
6,"COc1ccc(-c2cnc3c(Nc4ccc(C(=O)N5CCN(C(=O)[C@H]6CCNC6)CC5)c(C)c4)nccn23)c(F)c1F [Example 460, [4-[[3-(2,3-difluoro-4-methoxyphenyl)imidazo[1,2-a]pyrazin-8-yl]amino]-2-methylphenyl]-[4-[(3S)-pyrrolidine-3-carbonyl]piperazin-1-yl]methanone; hydrochloride]",83
7,"Cc1cc(Nc2nccn3c(-c4ccc(OC(F)F)cc4)cnc23)ccc1C(=O)N1CCN(C(=O)[C@@H]2C[C@](C)(O)CN2)CC1 [Example 462, [4-[[3-[4-(difluoromethoxy)phenyl]imi-dazo[1,2-a]pyrazin-8-yl]amino]-2-methylphenyl]-[4-[(2S,4S)-4-hydroxy-4-methylpyrrolidine-2-carbonyl]piperazin-1-yl]methanone; formic acid]",110
8,"CC[C@]1(O)CN[C@H](C(=O)N2CCN(C(=O)c3ccc(Nc4nccn5c(-c6ccc(OC)c(F)c6F)cnc45)cc3C)CC2)C1 [Example 465, [4-[[3-(2,3-difluoro-4-methoxyphenyl)imidazo[1,2-a]pyrazin-8-yl]amino]-2-methylphenyl]-[4-[(2S,4R)-4-ethyl-4-hydroxypyrrolidine-2-carbonyl]piperazin-1-yl]methanone; formic acid]",170
9,"Cc1cc(Nc2nccn3c(-c4ccc(OCC#N)c(F)c4Cl)cnc23)ccc1C(=O)N1CCC(C(=O)OC[C@@H]2CNCCN2)CC1 [Example 470, formic acid; [(2S)-piperazin-2-yl]methyl 1-[4-[[3-[2-chloro-4-(cyanomethoxy)-3-fluorophenyl]imidazo[1,2-a]pyrazin-8-yl]amino]-2-methylbenzoyl]piperidine-4-carboxylate]",92
10,"Cc1cc(Nc2nccn3c(-c4ccc(OCC#N)c(F)c4F)cnc23)ccc1C(=O)N1CCC(C(=O)OC[C@@H]2CNCCN2)CC1 [Example 473, formic acid; [(2S)-piperazin-2-yl]methyl 1-[4-[[3-[4-(cyanomethoxy)-2,3-difluorophenyl]imidazo[1,2-a]pyrazin-8-yl]amino]-2-methylbenzoyl]piperidine-4-carboxylate]",300
11,"COc1ccc(-c2cnc3c(Nc4ccc(C(=O)N5CCN(C(=O)[C@@H]6CCNC6)CC5)c(C)c4)nccn23)c(Cl)c1F [Example 474, [4-[[3-(2-chloro-3-fluoro-4-methoxyphenyl)imidazo[1,2-a]pyrazin-8-yl]amino]-2-methylphenyl]-[4-[(3R)-pyrrolidine-3-carbonyl]piperazin-1-yl]methanone; formic acid]",94
12,"COc1ccc(-c2cnc3c(Nc4ccc(C(=O)N5CCN(C(=O)NCCN)CC5)c(C)c4)nccn23)c(F)c1F [Example 475, N-(2-aminoethyl)-4-[4-[[3-(2,3-difluoro-4-methoxyphenyl)imidazo[1,2-a]pyrazin-8-yl]amino]-2-methylbenzoyl]piperazine-1-carboxamide; formic acid]",97
13,"COc1ccc(-c2cnc3c(Nc4ccc(C(=O)N5CCN(C(=O)[C@@H]6C[C@@H](O)CN6)CC5)c(C)c4)nccn23)c(Cl)c1F [Example 476, [4-[[3-(2-chloro-3-fluoro-4-methoxyphenyl)imidazo[1,2-a]pyrazin-8-yl]amino]-2-methylphenyl]-[4-[(2S,4R)-4-hydroxypyrrolidine-2-carbonyl]piperazin-1-yl]methanone; formic acid]",100
14,"COc1ccc(-c2cnc3c(Nc4ccc(C(=O)N5CCN(C(=O)C6(F)CCNCC6)CC5)c(C)c4)nccn23)c(F)c1F [Example 477, [4-[[3-(2,3-difluoro-4-methoxyphenyl)imidazo[1,2-a]pyrazin-8-yl]amino]-2-methylphenyl]-[4-(4-fluoropiperidine-4-carbonyl)piperazin-1-yl]methanone; hydrochloride]",120
15,"COc1ccc(-c2cnc3c(Nc4ccc(C(=O)N5CCN(C(=O)N[C@@H](C)CN)CC5)c(C)c4)nccn23)c(Cl)c1F [Example 478, formic acid]",130
16,"COc1ccc(-c2cnc3c(Nc4ccc(C(=O)N5CCN(C(=O)C6CCNCC6)CC5)c(C)c4)nccn23)c(Cl)c1F [Example 479, [4-[[3-(2-chloro-3-fluoro-4-methoxyphenyl)imidazo[1,2-a]pyrazin-8-yl]amino]-2-methylphenyl]-[4-(piperidine-4-carbonyl)piperazin-1-yl]methanone; formic acid]",130
17,"COc1ccc(-c2cnc3c(Nc4ccc(C(=O)N5CCN(C(=O)N6CCNCC6)CC5)c(C)c4)nccn23)c(F)c1F [Example 480, [4-[[3-(2,3-difluoro-4-methoxyphenyl)imidazo[1,2-a]pyrazin-8-yl]amino]-2-methylphenyl]-[4-(piperazine-1-carbonyl)piperazin-1-yl]methanone; formic acid]",140
18,"Cc1cc(Nc2nccn3c(-c4ccc(OC(F)F)cc4)cnc23)ccc1C(=O)N1CCN(C(=O)N[C@H](C)CN)CC1 [Example 482, N-[(2R)-1-aminopropan-2-yl]-4-[4-[[3-[4-(difluoromethoxy)phenyl]imi-dazo[1,2-a]pyrazin-8-yl]amino]-2-methylbenzoyl]piperazine-1-carboxamide; hydrochlroide]",170
